What was measured:
Type in all cases: in vivo
[1] = test system: KPL-4 subcutaneous xenograft; test: Antitumor activity in KPL-4 subcutaneous xenograft model in combination with trastuzumab in mice
Protocol: A human HER-2 positive breast cancer cell line KPL-4, which had been cultured in an RPMI-1640 medium containing 10% FBS, and penicillin and streptomycin, was adjusted to a concentration of 1×10^8 cells/mL with Hank's Balanced Salt Solution to prepare a cell suspension. The cell suspension was inoculated in a volume of 100 μL into a subcutaneous part of a right flank of nude mice, 7 weeks of ages (CAnN.Cg-Foxnlnu/CrlCrlj, female, Charles River Laboratories Japan, Inc.).
On the basis of the volumes of tumors obtained on the first day of administration, the mice were grouped such that averages of the tumor volumes were substantially equal among the groups. The experiment was conducted on groups each consisting of 6 mice. Each test compound was dissolved in DMSO and a solution was stored at the freezer before use. Immediately before the administration, the stock solution was diluted in saline.

[2] = test system: CT26 subcutaneous syngeneic model; test: Antitumor activity in CT26 subcutaneous syngeneic model in combination with anti-mPD-1 antibody in mice
Protocol: A murine undifferentiated colon carcinoma cell line CT26, which had been cultured in an RPMI-1640 medium containing 10% FBS, and penicillin and streptomycin, was adjusted to a concentration of 2×10^7 cells/mL with Hank's Balanced Salt Solution to prepare a cell suspension. On day 1, the cell suspension was inoculated in a volume of 100 μL into a subcutaneous part of a right flank of BALB/c mice, 6 weeks of ages (BALB/cAnNCrlCrlj, female, Charles River Laboratories Japan, Inc.). Two days after the cell inoculation, the mice were randomly divided into four groups and each group consists of 8 mice. The shortest diameter and the longest diameter of a tumor in each mouse were measured by using an electronic digital caliper (Digimatic™ caliper, Mitutoyo Corporation), so as to calculate the volume of the tumor in accordance with the following calculation formula: Tumor volume (mm^3)=Longest diameter (mm)×Shortest diameter (mm)×Shortest diameter (mm)/2 T/C=(mean tumor volume of treated group)/(mean tumor volume of control group) Inhibition of tumor growth (%)=(1−T/C)×100
The test compound was intravenously administered at 0.09 mg/kg on days 3 and 11. Anti-mPD-1 antibody (BE0146, Bio X Cell) was intravenously administered at 10 mg/kg on days 3, 7, 11, and 15.

[3] = test system: KPL-4 subcutaneous xenograft; test: Antitumor effects in the KPL-4 xenograft model in mice as monotherapy
Protocol: A human HER-2 positive breast cancer cell line KPL-4, which had been cultured in a DMEM containing 10% FBS, and penicillin-streptomycin, was adjusted to a concentration of 1×10^8 cells/mL with Hanks' Balanced Salt Solution to prepare a cell suspension. The cell suspension was inoculated in a volume of 100 μL into a subcutaneous part of a right flank of nude mice, 8 weeks of ages (CAnN.Cg-Foxnlnu/CrlCrlj, female, Charles River Laboratories Japan Inc.). Eleven days after cell inoculation (Day 1), the shortest diameter and the longest diameter of a tumor in each mouse were measured by using an electronic digital caliper (Digimatic™ caliper, Mitutoyo Corporation), so as to calculate the volume of the tumor in accordance with the following calculation formulae: Tumor volume (mm^3)=Longest diameter (mm)×Shortest diameter (mm)×Shortest diameter (mm)/2 Relative tumor volume (RTV)=Tumor volume (day X)/Tumor volume (the first day) Relative body weight (RBW)=Body weight (day X)/Body weight (the first day)
On the basis of the volumes of tumors obtained on Day 1, the mice were grouped such that averages of the tumor volumes were substantially equal among the groups. The experiment was conducted on groups each consisting of six mice. The test compound was dissolved in DMSO and a solution was stored in the freezer before use. Immediately before the administration, the stock solution was diluted with saline. The test compound in saline was intravenously once-weekly administered at 20 μg/kg, 60 μg/kg, or 180 μg/kg for 2 weeks (on Day 1 and Day 8).

[4] = test system: CD31-positive vessel in the FaDu subcutaneous model; test: Effect on CD31-positive vessel in the FaDu subcutaneous model in mice (Test Example 18); details: five days after
Protocol: A human squamous cell carcinoma of the head and neck (SCCHN) cell line FaDu, which had been cultured in an RPMI-1640 medium containing 10% FBS, and penicillin-streptomycin (culture medium), was adjusted to a concentration of 5×10^7 cells/mL with culture medium to prepare a cell suspension. The cell suspension was inoculated in a volume of 100 μL into a subcutaneous part of a right flank of nude mice, 6 weeks of ages (CAnN.Cg-Foxnlnu/CrlCrlj, female, Charles River Laboratories Japan, Inc.). Ten days after cell inoculation, the mice were grouped such that averages of the tumor volumes were substantially equal among the groups. The experiment was conducted on groups each consisting of 6 mice. Each test compound was dissolved in DMSO and a solution was stored in the freezer before use. Immediately before the administration, the stock solution was diluted with saline. The test compound in saline was intravenously administered at 20 μg/kg, […]. Five days after the single administration, tumor samples were collected and fixed with IHC Zinc Fixative (BD Pharmingen) at 4° C. for 24 hours. Paraffin-embedded tissues were sectioned (3 μm), mounted on positively charged slides, and air-dried. Immunohistochemical staining of CD31 was conducted using Ventana autostainer model Discover XT (Roche Diagnostics) according to the manufacture's protocol. Sections were deparaffinized, conditioned and the antigens were retrieved with CC1 (Ventana Medical Systems). […] The number of blood vessels in the whole tumor was quantified by counting the CD31-positive objects using inform 2 software (PerkinElmer Inc.) Area of the tumor region was measured by assessing the hematoxylin-staining area using inform 2 software (PerkinElmer Inc.) The number of blood vessels was normalized by the area of the tumor region. […] The ratios of blood vessel number in the test compound-dosing groups compared to non-treat group were calculated with the below formula: Tumor vessel ratio=blood vessel number of the test compound-dosing group/blood vessel number of the non-treat group)

Structure (SMILES): C=C1C[C@@H]2CC[C@@]34C[C@H]5O[C@H]6[C@@H](O3)[C@H]3O[C@H](CC[C@@H]3O[C@H]6C5O4)CC(=O)O[C@@H]3[C@@H](C)[C@@H]4O[C@@H]5C[C@]6(C[C@@H]7O[C@]8(C[C@H](C)[C@@H]9O[C@H](CN)[C@H](O)C[C@@H]9O8)C[C@H](C)[C@@H]7O6)O[C@@H]5C[C@@H]4O[C@H]3C[C@H]3O[C@@H](CC[C@@H]1O2)C[C@@H](C)C3=C [Compound (1)]
- Tumor Regression (%) ([1]; 0.09 mg/kg intravenously + trastuzumab 10 mg/kg): 83%
- Tumor Regression (%) ([1]; 0.09 mg/kg intravenously, without trastuzumab): 43%
- Tumor Regression (%) ([1]; 0.18 mg/kg intravenously + trastuzumab 10 mg/kg): 100%
- Tumor Regression (%) ([1]; 0.18 mg/kg intravenously, without trastuzumab): 87%
- Inhibition of tumor growth on day 15 (%) ([2]; 0.09 mg/kg intravenously + anti-mPD-1 antibody 10 mg/kg): 62%
- Inhibition of tumor growth on day 15 (%) ([2]; 0.09 mg/kg intravenously on days 3 and 11, without antibody): 30%
- antitumor effect ([3]; 60 μg/kg intravenously on Day 1 and Day 8): tumor regression was observed
- antitumor effect ([3]; 180 μg/kg intravenously on Day 1 and Day 8): tumor regression was observed
- eradication of xenograft tumors ([3]; 180 μg/kg, on Day 15): completely eradicated the xenograft tumors in all mice
- tumor blood vessel number ([4]; single administration 20 μg/kg): increased the tumor blood vessel number
- tumor blood vessel number ([4]; single administration 60 μg/kg): increased the tumor blood vessel number
- tumor blood vessel number ([4]; single administration 180 μg/kg): increased the tumor blood vessel number
